Assay results taken from US4560549A, “Method of relieving pain and inflammatory conditions employing substituted salicylamides” (Lever Brothers Company, priority 1983, dated 1985).

Key:
[1] = system: untreated ears of mice; test: Inflammatory potential of the compounds on untreated mouse ears (Study B, Day 1); format: in vivo, young, male, adult hairless outbred mice (Skh:hr-1 strain); conditions: 1.5 micromole per 10 microliter on untreated ears
Excerpt: (§1) Acute inflammation is induced by the application of 4 nano mole of the antibiotic A-23187 to the ears of young, male, adult hairless outbred mice (Skh:hr-1 strain). Thereafter, one of the compounds AN-10, AMCF3-8, ACBXE-9, acryloyl AN-10, S-4-F and SAN-6 is applied to the affected ears and the degree of reduction in edema (inflammation) noted.
(§2) Secondly, in the expression of the data, the objective parameter of ear weights is used as the sole data source (for the reduction of edema) as erythematous responses are not recorded. Ear weights are determined by sacrificing the animals four hours after initial application of the antibiotic A-23187 or other control material by the use of CO2 gas. Thereafter, the ears are excised by cutting along the characteristic ridge readily discernible along the inner aspect of the ears. Wet and dry ear weights are used to determine the extent of the edema or inflammation present.
(§3) A second group of studies (Study B) is conducted on two consecutive days with two sets of mice (totalling […]) received from the same shipment.
The first batch of 40 animals is divided into […] of 5 each. […] The remaining two groups of 5 animals each serve as controls and their ears are dosed with A-23187 and acetone respectively.
(§4) The amount of each salicylamide compound applied is kept constant, for Days 1 and 2, at 1.5 micromole per 10 microliter of test solution. Sacrifice begins four hours after application A-23187, on both days, and the results are recorded. Table 2 summarizes the results of the regimen of testing involved with each one of the 30 animals in question on Day 2 with the remaining 10 animals serving as controls as already noted.

[2] = system: ears of hairless outbred mice inflamed with A-23187; test: Reduction in edema of A-23187 inflamed mouse ears by ear weight (Examples 8-14, Studies A and B); format: in vivo, young, male, adult hairless outbred mice (Skh:hr-1 strain); conditions: for Reduction in Edema (%): sacrificed at four hours; for anti-inflammatory activity (in words): under the test conditions, data of Table 2
Excerpt: as §1
The method used in the subject Examples differs from the method used in the preceding Examples (4 through 7) in two respects.
as §2
In Study A, 28 test animals are randomized into four treatment groups of seven each and subjected to the following ear treatment regimen:
Each animal is dosed with a treatment consisting of a 10 microliter quantity of the assigned test material solution (or pure acetone in the case of the animals of Group D) applied to the outer aspect of both ears, i.e., 10 microliter of test material per ear. The concentrations of the respective materials in acetone solution are such that a 10 microliter dose of a solution of the antibiotic A-23187 contains 4 nano mole of such antibiotic. The corresponding quantity in the case of the AN-10 in acetone solution is 1.5 micromole. The animals of Groups A and B are initially treated with the acetone solution of A-23187. In the case of the animals of Group B alone, 10 microliter of the acetone solution of AN-10 is applied to the affected ears 1/2 hour after the application of the above-mentioned quantity of a solution in acetone of the antibiotic A-23187. The animals of Group C receive a 10 microliter dose per ear of the AN-10 in acetone solution alone. The animals of Group D receive a dose of 10 microliter per ear of pure acetone. All the test subjects are sacrificed four hours after the application of A-23187 to the animals of Groups A and B or the other test materials in the case of the animals of Groups C and D. The results are summarized in Table 2 noted below.
as §3
On Day 2, using the second set of 40 mice, sub-divided into 8 groups of 5 each, the six compounds in question are applied as acetone solutions in the manner described under Study A to mice ears inflamed with A-23187 again, as described in Study A above. As with the studies conducted on Day 1, the remaining two groups of 5 animals each serve as controls and their ears are dosed with A-23187 and acetone respectively.
as §4

[3] = system: rats; conditions: comparable toxicity for aspirin; cited from earlier work
[4] = system: inflammation of mice ears caused by calcium ionophore (A-23187); test: Anti-inflammatory activity on inflammation of mice ears caused by calcium ionophore A-23187 (Examples 4-7); format: in vivo, male outbred hairless mice; conditions: for Reduction in Edema (%) / Reduction in Erythema (%): Table I, 1.5 micromole topically to ear 30 min after 4.0 nmole A-23187, assessed at 4 hrs; for anti-inflammatory activity (in words): at the concentration used (1.5 micromole), data of Table 1; for reduction of inflammation (in words): topical, 30 minutes after application of ionophore A-23187
Excerpt: In a group of 5 male outbred hairless mice, inflammation is induced on their ears by the topical application thereto of 4.0 nmole in acetone solution (total volume 10 microliter) of the known divalent calcium ionophore (antibiotic A-23187), which is derived from streptomyces chartreusis and is a member of a known class of compounds having ionophoric activity. See, e.g. Pressman, B. C., "Biological Applications of Ionophores", Ann. Rev. Biochem., 45, 501, 1976. […] See Marks, F., Furstenberger, G., and Kownatzki, E., "Prostaglandin E-mediated Mitogenic Stimulation of Mouse Epidermis in vivo by divalent cation ionophore A-23187 and by tumor promoter 12-O-tetradecanoyl phorbol-13-acetate, Cancer Res., 41, 696, 1981.
In each animal only one ear is treated, the other untreated ear serving as a control.
In Examples 4, 5 and 6 the compounds AN-10, APCF3-8 and AMCF3-8, respectively, are topically applied to the treated ears of different groups of five male outbred hairless mice 30 minutes following the topical application thereto of the ionophore A-23187. Specifically, 1.5 micromole of the amido compound in acetone solution (total volume 10 microliters) is applied topically to treated male outbred hairless mice ears 30 min. after topical application thereto of a calcium ionophore (A-23187, 4.0 nmole total volume to 10 microliter) in acetone. As already noted, in each case, each animal serves as its own control in that only one ear is subjected to said test regime while the other ear is left untouched. Erythema and edema are assessed 4 hrs. after application of the ionophore. In Control Example 7, 3,4',5-tribromosalicylanilide (TBS) is applied in the same manner.

[5] = system: mice backs (skin); conditions: topical application to mice backs; cited from earlier work
[6] = system: Osborne-Mendel white rats; conditions: single dose oral route, female Osborne-Mendel white rats; cited from earlier work
[7] = Study B, Day 2, 1.5 micromole per 10 microliter, A-23187 inflamed ears

Compound	noticeable inflammation caused by the compound alone [1]	Reduction in Edema (%) [2, 7]	anti-inflammatory activity (in words) [2]	Reduction in Edema (%) [4]	Reduction in Erythema (%) [4]	anti-inflammatory activity (in words) [4]	also measured
CCCCCCCCC(=O)c1ccc(O)c(C(=O)Nc2cccc(C(=O)OCC)c2)c1 [ACBXE-9]	none of the six compounds being tested cause any noticeable inflammation	76%	significant anti-inflammatory activity	–	–	–	–
CC(=O)Oc1ccccc1C(=O)O [aspirin, acetylsalicylic acid]	–	–	–	–	–	–	LD50 [3]: about 1.75 g/kg. body weight
O=C(Nc1ccc(Br)cc1)c1cc(Br)cc(Br)c1O [TBS, 3,4',5-tribromosalicylanilide, reference compound]	–	–	–	12%	35%	essentially inactive	–
CNc1ccc2oc(C[C@H]3O[C@@]4(CC[C@H]3C)O[C@H]([C@H](C)C(=O)c3ccc[nH]3)[C@H](C)C[C@H]4C)nc2c1C(=O)O [A-23187, reference compound]	–	–	–	–	–	–	acute inflammation on treated mice ears (in words) ([4]; topical application of A-23187, time and dose dependent): Acute inflammation develops on treated mice ears within 4 hours; skin irritation (in words) [5]: potent ability to cause skin irritation with white blood cell infiltration, erythema (skin reddening), edema, epidermal hypertrophy and subsequent epidermal hyperplasia
CCCCCCCC(=O)c1ccc(O)c(C(=O)Nc2cccc(C(F)(F)F)c2)c1 [AMCF3-8]	none of the six compounds being tested cause any noticeable inflammation	81%	significant anti-inflammatory activity	80%	76%	effective anti-inflammatories	more edema reduction activity of the meta isomer than the para isomer ([4]; AMCF3-8 versus APCF3-8): about 30%; more erythema reduction activity of the meta isomer than the para isomer ([4]; AMCF3-8 versus APCF3-8): about 20%
CCCCCCCCCC(=O)c1ccc(O)c(C(=O)Nc2ccc([N+](=O)[O-])cc2)c1 [AN-10]	none of the six compounds being tested cause any noticeable inflammation	81%	significant anti-inflammatory activity	59%	59%	effective anti-inflammatories	LD50 [6]: greater than 2000 mg./kg.; Reduction in Edema (%) ([2]; Study A, 1.5 micromole per ear 1/2 hour after 4 nano mole A-23187): 55%
COc1ccc2c(c1)c(CC(=O)O)c(C)n2C(=O)c1ccc(Cl)cc1 [indomethacin, reference compound]	–	–	–	–	–	–	reduction of inflammation (in words) [4]: reduction of inflammation
C[C@]12CCC(=O)C=C1CC[C@@H]1[C@@H]2[C@@H](O)C[C@@]2(C)[C@H]1CC[C@]2(O)C(=O)CO [hydrocortisone, reference compound]	–	–	–	–	–	–	reduction of inflammation (in words) [4]: reduction of inflammation
CCCCc1ccc(O)c(C(=O)Nc2cccc(C(F)(F)F)c2)c1 [S-4-F]	none of the six compounds being tested cause any noticeable inflammation	70%	significant anti-inflammatory activity	–	–	–	–
C=CC(=O)Oc1ccc(C(=O)CCCCCCCCC)cc1C(=O)Nc1ccc([N+](=O)[O-])cc1 [acryloyl AN-10]	none of the six compounds being tested cause any noticeable inflammation	82%	significant anti-inflammatory activity	–	–	–	–
CCCCCCCC(=O)c1ccc(O)c(C(=O)Nc2ccc(C(F)(F)F)cc2)c1 [APCF3-8]	–	–	–	48%	57%	effective anti-inflammatories	–
CCCCCCc1ccc(O)c(C(=O)Nc2ccc([N+](=O)[O-])cc2)c1 [SAN-6]	none of the six compounds being tested cause any noticeable inflammation	59%	significant anti-inflammatory activity	–	–	–	–
